# Assay: Radioligand stability in mice (radio-HPLC of blood and urine)
# Format: in vivo
# Details: mean ± SD
# Method in brief: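 Male Swiss albino mice (n=3) given 2.5–3 nmol radioligand i.v. via tail vein in saline/EtOH 9/1. Blood at 5 min and urine at 30 min pi, EDTA-treated on ice, MeCN-deproteinised, analysed by radio-RP-HPLC; value is mean percent intact radioligand ± SD.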
structure (smiles),measurement,setting,value
CC(C)(C)C(=O)CN1C(=O)[C@H](NC(=O)Nc2cccc(C(=O)NCCOCCOCCOCCNC(=O)[C@H](CCC(=O)O)NC(=O)CCC(C(=O)O)N3CCN(CC(=O)[O-])CCN(CC(=O)[O-])CCN(CC(=O)[O-])CC3)c2)CN(C2CCCCC2)c2ccccc21.[177Lu+3] (stereo in doubt) [[^177Lu]Lu-GAS3],Intact radioligand in blood,mice blood collected 5 min pi,95.8 ± 2.0 (3) %
same,Intact radioligand in urine,mice urine collected 30 min pi,88.1 ± 0.4 (3) %
